According to ChEMBL document CHEMBL1201862, “PubChem BioAssay data set” (2004):
One block for each molecule: values may come before it. The source made the active and inactive calls.

Key:
Bcl-2-like protein 10 = Bcl-2-like protein 10 (Homo sapiens, UniProt Q9HD36); test: Bcl-B/TR3 peptide binding disruption – biochemical, fluorescence polarization, FITC-TR3 peptide, selectivity assay for Bfl-1 inhibitor project, primary screen (AID 748);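 also: fluorescence polarization from a fluorescein-labelled TR3 peptide binding purified Bcl-B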
[1] = target: T1, Neuropeptide Y receptor type 2 (Homo sapiens, UniProt P49146); test: Fluorescence-based counterscreen for agonists of NPY-Y1: cell-based high-throughput dose response assay for agonists of NPY-Y2.; assay type: functional
T1 sequence (P49146 whole entry): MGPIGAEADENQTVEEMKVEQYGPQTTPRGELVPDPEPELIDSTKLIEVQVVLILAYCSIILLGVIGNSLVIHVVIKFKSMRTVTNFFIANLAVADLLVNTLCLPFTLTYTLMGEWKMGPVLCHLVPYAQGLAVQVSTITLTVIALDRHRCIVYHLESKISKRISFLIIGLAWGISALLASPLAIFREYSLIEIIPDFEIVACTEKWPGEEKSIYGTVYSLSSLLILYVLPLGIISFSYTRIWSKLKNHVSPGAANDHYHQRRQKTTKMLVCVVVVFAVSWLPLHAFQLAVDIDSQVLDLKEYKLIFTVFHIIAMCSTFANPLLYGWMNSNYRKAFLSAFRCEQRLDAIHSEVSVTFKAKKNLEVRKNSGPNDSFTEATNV

HEK293 = test: Fluorescence-based counterscreen for potentiators or agonists of NPY-Y1: cell-based high-throughput dose response assay for inhibitors of cyclic nucleotide gated ion channel (CNGC) activity. In this assay, the parental HEK293 cell line transfected with a cyclic-nucleotide gated ion channel (CNGC)-based cAMP sensor is used to measure inhibition of isoproterenol-induced CNGC …; assay type: functional; details: Homo sapiens
[2] = target: T2, Neuropeptide Y receptor type 1 (Homo sapiens, UniProt P25929); test: Fluorescence-based dose response cell-based high-throughput screening assay for agonists of NPY-Y1. [Related pubchem assays: 1697 (Screening assay (NPY-Y1 agonists).), 1359 (Screening assay (NPY-Y2 potentiators or agonists).), 1304 (Screening assay (NPY-Y1 potentiators or agonists).), 1704 (Screening assay (CNGC inhibitors).), 1791 (Summary AID.)]; assay type: functional
T2 sequence (P25929 whole entry): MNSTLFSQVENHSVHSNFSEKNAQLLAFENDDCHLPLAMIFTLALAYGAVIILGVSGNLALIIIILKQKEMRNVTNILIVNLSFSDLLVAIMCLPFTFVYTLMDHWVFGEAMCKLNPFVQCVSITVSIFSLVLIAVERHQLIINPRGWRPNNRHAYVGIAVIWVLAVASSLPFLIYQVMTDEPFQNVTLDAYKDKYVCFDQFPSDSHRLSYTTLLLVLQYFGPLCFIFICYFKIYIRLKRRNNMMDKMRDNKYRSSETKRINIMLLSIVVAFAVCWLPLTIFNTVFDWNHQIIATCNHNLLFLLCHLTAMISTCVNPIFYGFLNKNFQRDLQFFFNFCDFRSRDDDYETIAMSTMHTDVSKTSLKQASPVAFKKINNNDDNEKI

MDA-MB-435 = test: cells; assay type: functional, cell-based; details: Homo sapiens
cells = assay type: functional, cell-based; details: PPC-1
[3] = target: Metabotropic glutamate receptor 4 (Rattus norvegicus, UniProt P31423); test: Modulation of the Metabotropic Glutamate Receptor mGluR4: Rat PAM Potency. [Related pubchem assays (depositor defined):AID2437, AID2807]; assay type: functional
[4] = target: Voltage-gated N-type calcium channel alpha-1B subunit/Amyloid beta A4 precursor protein-binding family A member 1 (Homo sapiens, UniProt Q00975+Q02410); test: disruptors of Mint-PDZ/N-type channel peptide interaction – biochemical, HTRF, SAR follow-up (AID 2489); assay type: functional
[5] = target: Scavenger receptor class B member 1 (Mus musculus, UniProt Q61009); test: mouse SR-BI DiI-HDL uptake blockers – ldlA[mSR-BI] cells, fluorescence, cherry pick, dose response (AID 493194); assay type: functional, cell-based;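 also: cellular uptake of fluorescent DiI-labeled HDL measured as cell fluorescence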
[6] = tested on: Streptococcus sp. 'group A'; test: Streptococcus pyogenes SK(-)GAS viability under kanamycin – luminescence, BacTiterGlo, confirmation, counter-screen for streptokinase expression inhibitor project, dose response (AID 1900); assay type: functional, organism-based
Streptococcus = test: GAS UMAA2166 growth inhibition – luminescence, BacTiterGlo, counter-screen for streptokinase expression inhibitor project, dose response (AID 1915); assay type: functional, organism-based;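 also: potency for reduction of bacterial viability or growth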
[7] = target: NACHT, LRR and PYD domains-containing protein 3 (Homo sapiens, UniProt Q96P20); test: NALP3 inhibitors in yeast, dose response, luminescent (AID 488799); assay type: functional
INS1 = test: INS-1E survival protection against cytokine death – cell-based, luminescence, retest, dose response (AID 449756); assay type: functional; details: Rattus norvegicus;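 also: cell death triggered by IL-1 beta plus TNF-alpha plus IFN-gamma mixture; protective hits raise ATP signal compared with cytokine alone wells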

Sequence of Metabotropic glutamate receptor 4 (P31423 whole entry): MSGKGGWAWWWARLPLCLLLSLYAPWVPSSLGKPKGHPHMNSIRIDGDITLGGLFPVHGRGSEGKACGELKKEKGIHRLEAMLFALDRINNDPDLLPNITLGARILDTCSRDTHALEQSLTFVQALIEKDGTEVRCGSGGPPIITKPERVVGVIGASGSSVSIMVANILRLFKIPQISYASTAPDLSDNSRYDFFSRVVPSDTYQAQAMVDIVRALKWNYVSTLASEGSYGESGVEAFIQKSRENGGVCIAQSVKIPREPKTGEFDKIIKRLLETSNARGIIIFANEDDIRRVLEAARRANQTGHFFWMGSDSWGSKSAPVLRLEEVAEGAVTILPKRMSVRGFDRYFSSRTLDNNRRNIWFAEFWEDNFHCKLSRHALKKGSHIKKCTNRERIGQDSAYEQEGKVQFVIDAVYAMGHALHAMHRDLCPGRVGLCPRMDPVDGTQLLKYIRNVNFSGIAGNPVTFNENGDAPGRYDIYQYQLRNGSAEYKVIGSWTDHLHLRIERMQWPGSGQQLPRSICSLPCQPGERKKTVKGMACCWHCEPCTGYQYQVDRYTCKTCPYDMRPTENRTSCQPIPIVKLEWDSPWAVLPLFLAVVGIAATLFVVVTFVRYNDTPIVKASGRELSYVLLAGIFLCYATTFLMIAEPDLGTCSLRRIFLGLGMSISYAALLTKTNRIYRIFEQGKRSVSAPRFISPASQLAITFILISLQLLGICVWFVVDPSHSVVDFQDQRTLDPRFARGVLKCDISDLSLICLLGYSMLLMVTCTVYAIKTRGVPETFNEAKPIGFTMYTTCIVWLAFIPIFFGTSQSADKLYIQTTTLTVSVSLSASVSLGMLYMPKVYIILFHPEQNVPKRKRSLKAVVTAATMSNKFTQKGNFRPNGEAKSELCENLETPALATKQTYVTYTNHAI
Sequence of NACHT, LRR and PYD domains-containing protein 3 (Q96P20 whole entry, the tested form may be a part): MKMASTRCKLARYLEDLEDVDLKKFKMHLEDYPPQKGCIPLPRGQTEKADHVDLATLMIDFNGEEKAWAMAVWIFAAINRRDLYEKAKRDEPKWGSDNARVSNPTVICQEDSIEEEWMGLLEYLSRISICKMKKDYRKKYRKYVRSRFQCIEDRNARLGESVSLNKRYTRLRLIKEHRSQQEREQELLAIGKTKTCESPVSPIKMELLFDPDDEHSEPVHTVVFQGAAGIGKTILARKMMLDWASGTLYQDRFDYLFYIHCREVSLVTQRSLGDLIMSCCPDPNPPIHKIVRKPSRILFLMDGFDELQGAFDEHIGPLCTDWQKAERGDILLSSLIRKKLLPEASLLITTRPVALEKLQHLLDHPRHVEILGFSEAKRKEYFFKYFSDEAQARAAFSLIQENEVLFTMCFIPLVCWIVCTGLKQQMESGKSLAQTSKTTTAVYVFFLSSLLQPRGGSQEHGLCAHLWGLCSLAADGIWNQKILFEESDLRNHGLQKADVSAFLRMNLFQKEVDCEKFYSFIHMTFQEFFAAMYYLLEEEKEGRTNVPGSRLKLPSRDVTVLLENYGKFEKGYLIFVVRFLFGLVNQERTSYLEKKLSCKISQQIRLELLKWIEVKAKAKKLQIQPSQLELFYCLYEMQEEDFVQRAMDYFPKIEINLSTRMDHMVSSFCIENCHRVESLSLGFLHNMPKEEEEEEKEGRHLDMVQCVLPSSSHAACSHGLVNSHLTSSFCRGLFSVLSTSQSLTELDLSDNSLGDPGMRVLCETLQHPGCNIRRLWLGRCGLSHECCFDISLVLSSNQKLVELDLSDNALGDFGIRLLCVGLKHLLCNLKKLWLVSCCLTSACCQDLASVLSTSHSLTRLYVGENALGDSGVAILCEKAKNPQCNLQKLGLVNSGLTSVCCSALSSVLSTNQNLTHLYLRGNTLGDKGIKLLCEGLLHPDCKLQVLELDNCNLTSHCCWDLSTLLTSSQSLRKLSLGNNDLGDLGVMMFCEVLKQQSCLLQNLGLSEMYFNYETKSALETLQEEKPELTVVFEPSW
Sequence of Bcl-2-like protein 10 (Q9HD36 whole entry): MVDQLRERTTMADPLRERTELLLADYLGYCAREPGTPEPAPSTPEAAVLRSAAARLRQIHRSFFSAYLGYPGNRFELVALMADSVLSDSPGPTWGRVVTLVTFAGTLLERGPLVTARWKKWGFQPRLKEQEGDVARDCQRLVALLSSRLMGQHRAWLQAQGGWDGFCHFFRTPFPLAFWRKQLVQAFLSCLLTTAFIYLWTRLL
Sequence of Scavenger receptor class B member 1 (Q61009 whole entry): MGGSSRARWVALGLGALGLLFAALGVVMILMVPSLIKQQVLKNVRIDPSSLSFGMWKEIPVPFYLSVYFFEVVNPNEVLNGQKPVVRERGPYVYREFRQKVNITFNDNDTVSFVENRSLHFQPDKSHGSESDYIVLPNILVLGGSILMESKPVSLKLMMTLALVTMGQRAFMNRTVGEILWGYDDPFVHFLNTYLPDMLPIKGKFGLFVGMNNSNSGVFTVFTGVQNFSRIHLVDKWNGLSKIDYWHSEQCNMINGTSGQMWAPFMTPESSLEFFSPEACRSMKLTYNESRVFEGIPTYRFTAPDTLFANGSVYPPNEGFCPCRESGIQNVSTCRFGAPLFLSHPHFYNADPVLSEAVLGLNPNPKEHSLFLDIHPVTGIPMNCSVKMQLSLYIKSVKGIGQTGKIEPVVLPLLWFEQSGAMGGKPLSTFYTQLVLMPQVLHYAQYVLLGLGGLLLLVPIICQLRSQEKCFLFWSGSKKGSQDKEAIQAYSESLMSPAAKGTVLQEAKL

IC50 (Bcl-2-like protein 10): > 100 µM (inactive)
Structure (SMILES): C=CCSc1nnc2nc3c(nn12)c1cc(C)ccc1n3CC=C

IC50 [4]: 42.5 µM (active)
Structure (SMILES): CCOC(=O)N1CCN(C(=O)c2ccc3nc(-c4ccco4)c(-c4ccco4)nc3c2)CC1

AC50 [5]: 45.9 µM (active)
Structure (SMILES): COc1cc(OC)cc(C(=O)Nc2cccc(NC(=O)c3cc(OC)cc(OC)c3)n2)c1

Continued, molecule first:

Structure (SMILES): OC(CNC1Cc2ccccc2C1)COc1ccc(Cl)cc1 (stereo not drawn)
EC50 [1]: > 35.4 µM (not active) | IC50 (HEK293): > 3.94 µM (active) | EC50 [2]: 11.6 µM (not active)

Structure (SMILES): CSc1nc(-c2ccccc2)nc(-c2ccccc2OC(C)=O)n1
IC50 (MDA-MB-435): > 10 µM (inactive) | IC50 (cells): > 10 µM (inactive)

Structure (SMILES): O=C(Nc1ccc(NC(=O)c2ccccc2Cl)c(Cl)c1)c1ccccn1
EC50 [3]: 0.75 µM (active)

Structure (SMILES): CC(=O)Oc1c(I)cc(I)cc1C(=O)Nc1ccc(Cl)cc1 [CLIOXANIDE]
EC50 [6]: 0.377 µM (active) | EC50 (Streptococcus): 0.76 µM (active) | IC50 [7]: 1.61 µM (active) | AC50 (INS1): 12.5 µM (active)
